From the supplement of paper PMC3974653
Structures can show the parent of a compound that is named as a salt. One block for each molecule: values may come before it.

Tested on: MTT (mouse pheochromocytoma)
Experiment: IC50 of cell viability (ATP content)
Conditions: (24 or 48 h)
Procedure, shortened: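 Library compounds in DMSO (23 nl by pintool, 8 concentrations, final 0.5 nM to 46 µM) were applied for 24 or 48 hrs to MTT mouse pheochromocytoma cells that had been cultured overnight at 37°C, 5% CO2 in white 1536-well plates. Cell viability was measured by CellTiter-Glo ATP luminescence, read after 15 minutes, with positive-control wells set at 100% and DMSO wells at 0%. A four-parameter logistic fit of the normalised signals yielded the IC50.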

IC50 of cell viability: > 46 µM
Structure (SMILES): COc1ccc(-c2cc(C(F)F)nn2-c2ccc([S+](N)(=O)[O-])cc2)cc1F [DERACOXIB]

IC50 of cell viability: > 46 µM
Structure (SMILES): CC1OC(OC2CCC3(C)C(CCC4C3CC(O)C3(C)C(C5=CC(=O)OC5)CCC43O)C2)CC(O)C1OC1CC(O)C(OC2CC(O)C(OC3OC(CO)C(O)C(O)C3O)C(C)O2)C(C)O1 (stereo not given) [DESLANOSIDE]

IC50 of cell viability: > 46 µM
Structure (SMILES): CC(=O)O.N=C(N)NCCCC(NC(=O)C1CCCN1C(=O)C1CSSCCC(=O)NC(Cc2ccc(O)cc2)C(=O)NC(Cc2ccccc2)C(=O)NC(CCC(N)=O)C(=O)NC(CC(N)=O)C(=O)N1)C(=O)NCC(N)=O.O.O.O (stereo not given) [DESMOPRESSIN ACETATE]

IC50 of cell viability: > 46 µM
Structure (SMILES): CC(=O)O.N=C(N)NCCCC(NC(=O)C1CCCN1C(=O)C1CSSCCC(=O)NC(Cc2ccc(O)cc2)C(=O)NC(Cc2ccccc2)C(=O)NC(CCC(N)=O)C(=O)NC(CC(N)=O)C(=O)N1)C(=O)NCC(N)=O.O.O.O (stereo not given) [DESMOPRESSIN]

IC50 of cell viability: > 46 µM
Structure (SMILES): C#C[C@]1(O)CC[C@H]2[C@@H]3CCC4=CCCC[C@@H]4[C@H]3C(=C)C[C@@]21CC [DESOGESTREL]

IC50 of cell viability: > 46 µM
Structure (SMILES): CC1(C)O[C@@H]2C[C@H]3[C@@H]4CC\C5=C\C(=O)\C=C/[C@]5(C)[C@H]4C(O)C[C@]3(C)[C@@]2(O1)C(=O)CO (stereo not given in full) [DESONIDE]

IC50 of cell viability: > 46 µM
Structure (SMILES): CC(=O)OCC(=O)[C@H]1CC[C@H]2[C@@H]3CCC/4=C/C(=O)CC[C@]4(C)[C@H]3CC[C@]12C [DESOXYCORTICOSTERONE ACETATE]

IC50 of cell viability: > 46 µM
Structure (SMILES): CC(C)(C)C(=O)OCC(=O)C1CCC2C3CCC4=CC(=O)CCC4(C)C3CCC12C (stereo not given) [DESOXYCORTICOSTERONE PIVALATE]

IC50 of cell viability: > 46 µM
Structure (SMILES): C[C@@H]1CC2C3CCC4=CC(=O)C=C[C@]4(C)[C@@]3(F)[C@@H](O)C[C@]2(C)[C@@]1(O)C(=O)COC(=O)c1cccc(S(=O)(=O)[O-])c1 (stereo not given in full) [DEXAMETHASONE METASULFOBENZOATE SODIUM]

IC50 of cell viability: > 46 µM
Structure (SMILES): [Na+].[Na+].CC1CC2C3CCC/4=C/C(=O)/C=C\[C@@]4(C)[C@]3(F)C(O)C[C@]2(C)[C@]1(O)C(=O)CO[P]([O-])([O-])=O (stereo not given in full) [DEXAMETHASONE SODIUM PHOSPHATE]

IC50 of cell viability: > 46 µM
Structure (SMILES): CCCCC(=O)O[C@]1(C(=O)CO)[C@H](C)C[C@H]2[C@@H]3CCC4=CC(=O)C=C[C@]4(C)[C@@]3(F)[C@@H](O)C[C@@]21C [DEXAMETHASONE VALERATE]

IC50 of cell viability: > 46 µM
Structure (SMILES): CC(C)NCC(O)c1ccc(N[S+](C)(=O)[O-])cc1.Cl (stereo not given) [DEXSOTALOLUM]

IC50 of cell viability: > 46 µM
Structure (SMILES): CC(=O)Oc1cccc2c1C(=O)c1c(OC(C)=O)cc(C(=O)O)cc1C2=O [DIACERIN]

IC50 of cell viability: > 46 µM
Structure (SMILES): C=CCSSSCC=C [DIALLYL TRISULFIDE]

IC50 of cell viability: > 46 µM
Structure (SMILES): COc1ccc(Cc2cnc(N)nc2N)cc1OC [DIAVERIDINUM]

IC50 of cell viability: > 46 µM
Structure (SMILES): C\C1=N\C2=C(C=C(Cl)C=C2)[S+]([O-])(=O)N1 [DIAZOXIDE]

IC50 of cell viability: > 46 µM
Structure (SMILES): CC(C)(C)c1ccc2c(S(=O)(=O)[O-])c(C(C)(C)C)ccc2c1 [DIBUNATE SODIUM]

IC50 of cell viability: > 46 µM
Structure (SMILES): OCc1ccc(Cl)cc1Cl [DICHLOROBENZYL ALCOHOL]

IC50 of cell viability: > 46 µM
Structure (SMILES): ClC1=CC=C(C=C1)C(C#N)C2=C(Cl)C=C(C=C2Cl)N3\N=C/C(=O)NC3=O (stereo not given) [DICLAZURIL]

IC50 of cell viability: > 46 µM
Structure (SMILES): O=C([O-])Cc1ccccc1Nc1c(Cl)cccc1Cl.[Na+] [DICLOFENAC SODIUM]

IC50 of cell viability: > 46 µM
Structure (SMILES): COc1ccc(/C=C/C(=O)O)cc1 [DIETHANOLAMINE METHOXYCINNAMATE]

IC50 of cell viability: > 46 µM
Structure (SMILES): CC/C(=C(/CC)c1ccc(OP(=O)(O)O)cc1)c1ccc(OP(=O)(O)O)cc1 [DIETHYLSTILBESTROL DIPHOSPHATE]

IC50 of cell viability: > 46 µM
Structure (SMILES): CCN(CC)C(=O)c1cccc(C)c1 [DIETHYLTOLUAMIDE]

IC50 of cell viability: > 46 µM
Structure (SMILES): CC(C(O)c1ccccc1)N(C)CCOC(c1ccccc1)c1ccccc1 (stereo not given) [DIFETEROL HYDROCHLORIDE]

IC50 of cell viability: > 46 µM
Structure (SMILES): CN1CCN(c2cc3c(cc2F)c(=O)c(C(=O)O)cn3-c2ccc(F)cc2)CC1 [DIFLOXACIN HYDROCHLORIDE]

IC50 of cell viability: > 46 µM
Structure (SMILES): CCCCC(=O)OCC(=O)[C@H]1[C@H](C)C[C@@H]2[C@@H]3C[C@@H](F)C4=CC(=O)C=C[C@]4(C)[C@@]3(F)[C@@H](O)C[C@@]21C [DIFLUCORTOLONE VALERATE]

IC50 of cell viability: > 46 µM
Structure (SMILES): CCCC(=O)O[C@@]1(CC[C@H]2C3C[C@H](F)\C4=C\C(=O)\C=C/C4(C)[C@@]3(F)[C@@H](O)CC12C)C(=O)COC(C)=O (stereo not given in full) [DIFLUPREDNATE]

IC50 of cell viability: > 46 µM
Structure (SMILES): NNc1nnc(NN)c2ccccc12 [DIHYDRALAZINUM]

Continued, molecule first:

Structure (SMILES): O=C(CO)C(O)C(O)C(O)CO [D-LEVULOSE]
IC50 of cell viability: > 46 µM

Structure (SMILES): C=C(C)C1CC=C(C)CC1 [D-LIMONENE]
IC50 of cell viability: > 46 µM

Structure (SMILES): OC[C@@H](O)[C@@H](O)[C@H](O)[C@H](O)CO [D-Mannitol]
IC50 of cell viability: > 46 µM

Structure (SMILES): CC(C)(CO)[C@@H](O)C(=O)NCCC(=O)[O-] [D-Pantothenic acid hemicalcium salt]
IC50 of cell viability: > 46 µM

Structure (SMILES): N[C@H](CO)C(=O)O [D-SERINE]
IC50 of cell viability: > 46 µM

Structure (SMILES): N[C@H](Cc1c[nH]c2ccccc12)C(=O)O [D-TRYPTOPHAN]
IC50 of cell viability: > 46 µM

Structure (SMILES): N[C@@H]1CONC1=O [D-cycloserine]
IC50 of cell viability: > 46 µM

Structure (SMILES): CCNC(=O)NCCCOc1cccc(CN2CCCCC2)c1 [DALCOTIDINE]
IC50 of cell viability: > 46 µM

Structure (SMILES): O=C(O)Cc1ccc(CCN[S+](=O)([O-])c2ccc(Cl)cc2)cc1 [DALTROBANUM]
IC50 of cell viability: > 46 µM

Structure (SMILES): O=C1CN(/N=C/c2ccc(-c3ccc([N+](=O)[O-])cc3)o2)C(=O)N1 [DANTROLENE]
IC50 of cell viability: > 46 µM

Structure (SMILES): NC(=O)C(c1ccccc1)(c1ccccc1)[C@@H]1CCN(CCc2ccc3c(c2)CCO3)C1 [DARIFENACIN HYDROBROMIDE]
IC50 of cell viability: > 46 µM

Structure (SMILES): CC(C)CN(C[C@@H](O)[C@H](Cc1ccccc1)NC(=O)O[C@@H]1CO[C@H]2OCC[C@H]21)[S+](=O)([O-])c1ccc(N)cc1 [DARUNAVIR ETHANOLATE]
IC50 of cell viability: > 46 µM

Structure (SMILES): Cc1nc(Nc2ncc(C(=O)Nc3c(C)cccc3Cl)s2)cc(N2CCN(CCO)CC2)n1 [DASATINIB]
IC50 of cell viability: > 46 µM

Structure (SMILES): O=C(O)c1ccc(OCCn2ccnc2)cc1 [DAZOXIBENUM]
IC50 of cell viability: > 46 µM

Structure (SMILES): O=C([O][Na])C(Cl)Cl [DCA]
IC50 of cell viability: > 46 µM

Structure (SMILES): CC(=O)N[C@@H](CCC(=O)O)C(=O)O [DEANOLI ACEGLUMAS]
IC50 of cell viability: > 46 µM

Structure (SMILES): C[N+](C)(C)CCCCCCCCCC[N+](C)(C)C [DECAMETHONIUM]
IC50 of cell viability: > 46 µM

Structure (SMILES): CCCCCCCCCC(=O)NO [DECANOHYDROXAMIC ACID]
IC50 of cell viability: > 46 µM

Structure (SMILES): CCCCCCCCCCOc1cc2c(O)c(C(=O)OCC)cnc2cc1OCC [DECOQUINATE]
IC50 of cell viability: > 46 µM

Structure (SMILES): CCCCCCCC/C=C\CCCCCCCCN [DECTAFLURUM]
IC50 of cell viability: > 46 µM

Structure (SMILES): O=C(O)c1ccc(-n2nc(-c3ccccc3O)nc2-c2ccccc2O)cc1 [DEFERASIROX]
IC50 of cell viability: > 46 µM

Structure (SMILES): CC1C(=O)C(=O)C=CN1C (stereo not given) [DEFERIPRONE]
IC50 of cell viability: > 46 µM

Structure (SMILES): C=C1N[C@]2(C(=O)COC(C)=O)[C@@H](C[C@H]3[C@@H]4CCC5=CC(=O)C=C[C@]5(C)[C@H]4[C@@H](O)C[C@@]32C)O1 [DEFLAZACORT]
IC50 of cell viability: > 46 µM

Structure (SMILES): CC(CCC(=O)O)C1CCC2C3C(=O)C[C@@H]4CC(=O)CC[C@@]4(C)C3CC(=O)[C@]12C (stereo not given in full) [DEHYDROCHOLIC ACID]
IC50 of cell viability: > 46 µM

Structure (SMILES): CCOC(=O)[C@H](CCc1ccccc1)N[C@@H](C)C(=O)N(CC(=O)O)C1Cc2ccccc2C1 [DELAPRIL HYDROCHLORIDE]
IC50 of cell viability: > 46 µM

Structure (SMILES): CC(C)Nc1cccnc1N1CCN(C(=O)c2cc3cc(N[S+](C)(=O)[O-])ccc3[nH]2)CC1 [DELAVIRDINE MESYLATE]
IC50 of cell viability: > 46 µM

Structure (SMILES): Cc1cc(O)cc2c1O[C@](C)(CCC[C@H](C)CCC[C@H](C)CCCC(C)C)CC2 [DELTA-TOCOPHEROL, D-]
IC50 of cell viability: > 46 µM

Structure (SMILES): CN1C(=O)[C@@H](NC(=O)c2cc3ccccc3[nH]2)N=C(c2ccccc2)c2ccccc21 [DEVAZEPIDUM]
IC50 of cell viability: > 46 µM

Structure (SMILES): CCNC(C)Cc1cccc(C(F)(F)F)c1 (stereo not given) [DEXFENFLURAMINE]
IC50 of cell viability: > 46 µM

Structure (SMILES): C[N@H+]1CC[C@@]23C4OC5=C2C(=CC=C5OC(C)=O)C[C@H]1[C@@H]3\C=C/[C@@H]4OC(C)=O (stereo not given in full) [DIAMORPHINE HYDROCHLORIDE]
IC50 of cell viability: > 46 µM

Structure (SMILES): NCC1CCC(N)C(O[C@@H]2C(O)[C@H](O[C@H]3OC(CO)C(O)C(N)C3O)[C@@H](N)C[C@H]2N)O1.O=[S+]([O-])(O)O (stereo not given in full) [DIBEKACIN]
IC50 of cell viability: > 46 µM

Structure (SMILES): c1ccc2c(c1)sc1ccccc12 [DIBENZOTHIOPHENE]
IC50 of cell viability: > 46 µM

Structure (SMILES): CCCCCCCCCCCC(=O)[O][Sn]([CH2]CCC)([CH2]CCC)[O]C(=O)CCCCCCCCCCC [DIBUTYLTIN DILAURATE]
IC50 of cell viability: > 46 µM

Structure (SMILES): Cc1ccc2c(c1)[C@@H]1CN(C)CC[C@H]1N2 [DICARBINUM]
IC50 of cell viability: > 46 µM

Structure (SMILES): CCN(CC)C(C)C(=O)c1ccccc1 (stereo not given) [DIETHYLPROPION HYDROCHLORIDE]
IC50 of cell viability: > 46 µM

Structure (SMILES): CN1C[C@H](C(=O)N[C@]2(C)O[C@@]3(O)[C@@H]4CCCN4C(=O)[C@H](Cc4ccccc4)N3C2=O)C[C@@H]2c3cccc4[nH]cc(c34)C[C@H]21 [DIHYDROERGOTAMINE]
IC50 of cell viability: > 46 µM

Structure (SMILES): CNC1C(OC2C(O[C@@H]3C(O)C(O)[C@@H](NC(=N)N)C(O)C3NC(=N)N)OC(C)[C@@]2(O)CO)OC(CO)C(O)C1O.O=[S+]([O-])(O)O (stereo not given in full) [DIHYDROSTREPTOMYCIN SULFATE]
IC50 of cell viability: > 46 µM
